Values of other authors as cited in publication PMC12162873, “Modulating phosphatase DUSP22 with BML-260 ameliorates skeletal muscle wasting via Akt independent JNK-FOXO3a repression” (EMBO Molecular Medicine, 2025).

What was measured:
[1] = test system: JNK; design: method as in ref [19] Bennett et al, 2001; details: ref [19] Bennett et al, 2001; cited from earlier work
[2] = test system: aldose reductase; design: method as in Ramirez and Borja, 2008; details: drug for diabetic neuropathy; ref Ramirez and Borja, 2008; cited from earlier work

SMILES	selectivity versus a range of kinases and enzymes tested [1]	safety and tolerability [2]
Oc1c2ccccc2c2c3c(cccc13)N=N2 [SP600125]	> 20 -fold	–
CC(/C=C1\SC(=S)N(CC(=O)O)C1=O)=C\c1ccccc1 [Epalrestat]	–	safe, well-tolerated
